# Assay results as given in patent publication US20260207535A1, “CRIBLAGE INHIBITEURS USP8” (COMMISSARIAT A L'ENERGIE ATOMIQUE ET AUX ENERGIES …, priority 2022, published 2026).
# Key:
# [1] = biological target: T1, UCH-L3 (Homo sapiens, UniProt P15374); assay: UCH-L3 inhibition assay (Ub-Rhodamine); assay type: biochemical; details: UCH-L3 3 nM
# T1 construct: or the more distant UCH-L3 enzyme (Full length); purchased BostonBiochem E-325
# T1 sequence (P15374 1-230): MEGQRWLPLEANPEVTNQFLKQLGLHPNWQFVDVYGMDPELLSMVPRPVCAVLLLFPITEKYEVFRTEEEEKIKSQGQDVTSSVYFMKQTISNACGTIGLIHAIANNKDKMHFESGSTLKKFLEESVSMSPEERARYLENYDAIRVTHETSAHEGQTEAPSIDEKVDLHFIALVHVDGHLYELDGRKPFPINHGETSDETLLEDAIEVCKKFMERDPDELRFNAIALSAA
# Experimental: UCH-L3 (BostonBiochem ref. E-325) was used at a concentration of 3 nM in the presence of the Ub-Rhodamine. Enzymatic inhibition was monitored as for USP8 or USP2 CD.
# [2] = biological target: T2, catalytic domain of USP2 (USP2CD) (Homo sapiens, UniProt O75604); assay: USP2 CD inhibition (Ub-Rho); assay type: biochemical; details: USP2CD 16 nM
# T2 construct: The purified catalytic domain of USP2 (USP2CD, in-house purified) was used; made in house
# T2 sequence (O75604 267-599 limits assumed): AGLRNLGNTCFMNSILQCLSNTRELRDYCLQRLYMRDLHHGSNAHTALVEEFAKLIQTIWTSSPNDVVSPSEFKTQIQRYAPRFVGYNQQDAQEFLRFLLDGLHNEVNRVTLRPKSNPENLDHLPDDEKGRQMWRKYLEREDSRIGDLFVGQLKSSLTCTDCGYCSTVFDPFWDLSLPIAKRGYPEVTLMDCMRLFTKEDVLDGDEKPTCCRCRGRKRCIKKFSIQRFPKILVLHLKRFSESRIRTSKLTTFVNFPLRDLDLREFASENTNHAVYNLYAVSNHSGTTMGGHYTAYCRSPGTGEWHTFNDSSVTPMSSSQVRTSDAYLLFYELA
# Experimental: The purified catalytic domain of USP2 (USP2CD, in-house purified) was used at a concentration of 16 nM in the presence of the artificial substrate Ub-Rho. Inhibition assays were performed as described above.
# [3] = tested on: AtT-20 pituitary cells; assay: Inhibition of ACTH secretion in pituitary cells (ACTH EIA on supernatant); assay type: cell-based, mouse
# Experimental: ACTH release (percent comparison to DMSO control). Briefly, 12,500 AtT-20 cells per well were seeded in a 96-well plate. After 24 hours exposure, cells were treated with each compound at the indicated final concentration, or with DMSO alone (control condition compound solvent) or with corticotropin releasing factor (indicated CRF) at 100 nM. After a 24-hour treatment, cell supernatants were collected and stored at −80° C., prior to quantification of ACTH concentration using ACTH chemiluminescent EIA kit (Phoenix Pharmaceuticals, Inc.). Determination of ACTH concentrations was based on the best-fitting ACTH standard curve and P values were calculated using one-way ANOVA, using Prism 9 software (GraphPad Software, Inc.) ns (P=0.12). **P<0.002. ***P<0.001. All compounds were tested in technical triplicates. One representative experiment out of three is presented.
# FIG. 4: illustrates a decrease of ACTH secretion by AtT-20 cells after 24-hour treatment of halogenated salicylanilides. 12,500 AtT-20 cells per well were seeded in a 96-well plate. […] After a 24-hour treatment, cell supernatants were collected and stored at −80° C., prior to quantification of ACTH concentration using ACTH chemiluminescent EIA kit (Phoenix Pharmaceuticals, Inc.). Determination of ACTH concentrations was based on the best-fitting ACTH standard curve and P values were calculated by ordinary one-way ANOVA using Prism 6 software (GraphPad Software, Inc), ns (not significant), **** P<0.0001. Compounds were tested in technical triplicates.
# 12,500 AtT-20 cells per well were seeded in a 96-well plate. After 24 hours, cells were treated with compounds (corresponding chemical formula are indicated in Table 1) at 25 μM final concentration, or with DMSO alone (compound solvent). After a 24-hour treatment, cell supernatants were collected and stored at −80° C., prior to quantification of ACTH concentration using ACTH chemiluminescent EIA kit (Phoenix Pharmaceuticals, Inc.). Determination of ACTH concentrations was based on the best-fitting ACTH standard curve and P values were calculated by ordinary one-way ANOVA using Prism 6 software (GraphPad Software, Inc), ns (not significant), *P<0.05, ***P<0,0001. Compounds were tested in technical triplicates.
# Mouse AtT-20 pituitary cell line were used as a powerful and well-characterized model to monitor ACTH secretion using an enzyme immunoassay (EIA) kit.
# Mouse AtT-20 cells were obtained from the American Type Culture Collection and maintained on DMEM containing 10% fetal bovine serum, 100 μg/mL streptomycin and 100 U/mL penicillin at 37° C. with 5% CO2 after recovery from long-term storage on liquid nitrogen-vapor phase.
# The ACTH secretion levels of AtT-20 cell culture was monitored on the supernatant of AtT-20 cells treated or not by increasing doses of compounds belonging to the family of halogenated salicylanilides chemicals.
# 1.25×10^4 AtT20 cells were seeded on polylysine-coated 96-well culture vessels on 150 μL of complete medium. After 24 hours, cells were treated with stock compounds to a final DMSO concentration of 0.5%. After 24 hours of treatment, cell culture supernatant was collected, cleared for 10 min at 1000×g at 4° C., diluted or not in assay buffer (Phoenix Peptide ACTH EIA EK-001-21) and frozen at −80° C. for subsequent processing according to the instructions of the kit's manufacturer.
structure (smiles),measurement,setting,value
"Cc1cc(C(C#N)c2ccc(Cl)cc2)c(Cl)cc1NC(=O)c1cc(I)cc(I)c1O (stereo not shown) [Closantel, reference compound]",activity against UCH-L3,[1],not active
same,activity against USP2CD,[2],active
same,reduction in ACTH release,"[3]; 5.62 μM, compared to control",20%
same,"inhibition of ACTH at 25 μM, in words (FIG. 4, FIG. 5)","[3]; 25 μM, 24-hour treatment",significant inhibition
same,ACTH secretion reduction,"[3]; 30 μM, compared to control conditions",60%
same,activity at 25 µM,"[3]; Mus musculus, AtT20, 25 μM, 24-hour treatment, AtT-20 supernatant, read-out: ACTH secretion % of control (DMSO) at 25 μM",65%
same,dose-dependent inhibition of ACTH (FIG. 3),"[3]; increasing concentrations, 24-hour treatment",significant dose-dependent inhibition
